Values joined by “and” are separate entries in the source; they are usually repeats but may differ in a detail not shown here. Equal values may be shown once. Inconclusive results and toxic doses are left out. How the source made its calls: active means survival T/C of 150% or more; inactive means T/C below 125% in these data.
Tested on: P388 leukemia ip, CD2F1 mice, survival T/C
Assay: NCI In Vivo Anticancer Drug Screen. Data for tumor model P388 Leukemia (intraperitoneal) in CD2F1 (CDF1) mice
Conditions: endpoint: median survival time, higher = longer survival
How it was run: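 Mice carrying the transplanted tumor received test compound or vehicle. Survival was recorded in each group, and the value is the treated-group measurement divided by that of the vehicle-treated control group.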

[1] = dose: 100.0 mg/kg/injection, schedule: Q04DX003 (ip), vehicle: saline
[2] = dose: 200.0 mg/kg/injection, schedule: Q04DX003 (ip), vehicle: saline
[3] = dose: 400.0 mg/kg/injection, schedule: Q04DX003 (ip), vehicle: saline
[4] = dose: 50.0 mg/kg/injection, schedule: Q01DX005 (ip), vehicle: Klucel (hydroxypropylcellulose) (HPC)
[5] = dose: 100.0 mg/kg/injection, schedule: Q01DX005 (ip), vehicle: Klucel (hydroxypropylcellulose) (HPC)
[6] = dose: 50.0 mg/kg/injection, schedule: Q01DX009 (ip), vehicle: Klucel (hydroxypropylcellulose) (HPC)
[7] = dose: 100.0 mg/kg/injection, schedule: Q01DX009 (ip), vehicle: Klucel (hydroxypropylcellulose) (HPC)
[8] = dose: 200.0 mg/kg/injection, schedule: Q01DX009 (ip), vehicle: Klucel (hydroxypropylcellulose) (HPC)
[9] = dose: 50.0 mg/kg/injection, schedule: Q01DX005 (ip), vehicle: saline with Tween-80
[10] = dose: 100.0 mg/kg/injection, schedule: Q01DX005 (ip), vehicle: saline with Tween-80
[11] = dose: 200.0 mg/kg/injection, schedule: Q01DX005 (ip), vehicle: saline with Tween-80
[12] = dose: 6.25 mg/kg/injection, schedule: Q01DX009 (ip), vehicle: saline with Tween-80
[13] = dose: 12.5 mg/kg/injection, schedule: Q01DX009 (ip), vehicle: saline with Tween-80
[14] = dose: 25.0 mg/kg/injection, schedule: Q01DX009 (ip), vehicle: saline with Tween-80
[15] = dose: 6.25 mg/kg/injection, schedule: Q01DX009 (ip), vehicle: saline
[16] = dose: 12.5 mg/kg/injection, schedule: Q01DX009 (ip), vehicle: saline
[17] = dose: 25.0 mg/kg/injection, schedule: Q01DX009 (ip), vehicle: Klucel (hydroxypropylcellulose) (HPC)
[18] = dose: 25.0 mg/kg/injection, schedule: Q01DX009 (ip), vehicle: saline
[19] = dose: 50.0 mg/kg/injection, schedule: Q01DX009 (ip), vehicle: saline
[20] = dose: 100.0 mg/kg/injection, schedule: Q01DX009 (ip), vehicle: saline
[21] = dose: 100.0 mg/kg/injection, schedule: Q01DX001 (ip), vehicle: saline with Tween-80

Measured: T/C

OCC(O)CO
inactive: dose: 0.5 % in 0.5 ml injection vol, schedule: Q01DX009 (ip), vehicle: water 100 % of control | dose: 1.0 % in 0.5 ml injection vol, schedule: Q01DX009 (ip), vehicle: water 93 % of control | dose: 2.0 % in 0.5 ml injection vol, schedule: Q01DX009 (ip), vehicle: water 99 % of control and 105 % of control | dose: 4.0 % in 0.5 ml injection vol, schedule: Q01DX009 (ip), vehicle: water 105 % of control and 111 % of control | dose: 8.0 % in 0.5 ml injection vol, schedule: Q01DX009 (ip), vehicle: water 104 % of control and 94 % of control | dose: 16.0 % in 0.5 ml injection vol, schedule: Q01DX009 (ip), vehicle: water 101 % of control and 102 % of control

O=C(O)C1CCCC2C(O)CCC(=O)C12 (stereo not given)
inactive: [1] 105 % of control | [2] 110 % of control | [3] 105 % of control

C=CCP1(C)=NP(OCC(F)(F)F)(OCC(F)(F)F)=NP(OCC(F)(F)F)(OCC(F)(F)F)=N1 (stereo not given)
inactive: [4] 99 % of control | [5] 101 % of control | dose: 200.0 mg/kg/injection, schedule: Q01DX005 (ip), vehicle: Klucel (hydroxypropylcellulose) (HPC) 92 % of control

CC(C)(C)c1ccc(OP(=S)(NN)Oc2ccc(C(C)(C)C)cc2)cc1
inactive: [6] 98 % of control | [7] 102 % of control | [8] 94 % of control

CC1(C)COC2(OCC(COc3ccccc3)O2)C1O (stereo not given)
inactive: dose: 60.0 mg/kg/injection, schedule: Q01DX005 (ip), vehicle: Klucel (hydroxypropylcellulose) (HPC) 104 % of control | dose: 120.0 mg/kg/injection, schedule: Q01DX005 (ip), vehicle: Klucel (hydroxypropylcellulose) (HPC) 98 % of control | dose: 240.0 mg/kg/injection, schedule: Q01DX005 (ip), vehicle: Klucel (hydroxypropylcellulose) (HPC) 98 % of control

CCCCOc1cc2c(cc1C(C)c1ccc(OC)cc1)OCO2 (stereo not given)
inactive: dose: 50.0 mg/kg/injection, schedule: Q01DX005 (ip), vehicle: distilled water + alcohol 96 % of control | dose: 100.0 mg/kg/injection, schedule: Q01DX005 (ip), vehicle: distilled water + alcohol 95 % of control | dose: 200.0 mg/kg/injection, schedule: Q01DX005 (ip), vehicle: distilled water + alcohol 96 % of control

CS(=O)(=O)/C=C/c1cccnc1
inactive: [6] 101 % of control | [7] 99 % of control | [8] 103 % of control

[N-]=[N+]=NC12CC3CC4C5CC(CC41)CC2[C@H]5C3
inactive: [9] 97 % of control | [10] 99 % of control | [11] 100 % of control

COc1ccc(-c2c(N3CCOCC3)oc3cc(N4CCOCC4)c(O)cc23)cc1
inactive: dose: 25.0 mg/kg/injection, schedule: Q01DX005 (ip), vehicle: saline with Tween-80 100 % of control | [9] 98 % of control | [10] 100 % of control | [11] 91 % of control

COc1cc(NC(C)CN(CC(C)C)CC(C)C)c2ncccc2c1Cl (stereo not given)
inactive: dose: 50.0 mg/kg/injection, schedule: Q01DX005 (ip), vehicle: saline 100 % of control | dose: 100.0 mg/kg/injection, schedule: Q01DX005 (ip), vehicle: saline 103 % of control | dose: 200.0 mg/kg/injection, schedule: Q01DX005 (ip), vehicle: saline 116 % of control

CC1(C)OC2C(CO)OC(n3ccc(=O)[nH]c3=O)C2O1 (stereo not given)
inactive: [12] 107 % of control | [13] 109 % of control | [14] 100 % of control and 110 % of control and 120 % of control | dose: 50.0 mg/kg/injection, schedule: Q01DX009 (ip), vehicle: saline with Tween-80 108 % of control and 92 % of control and 97 % of control | dose: 100.0 mg/kg/injection, schedule: Q01DX009 (ip), vehicle: saline with Tween-80 90 % of control

CS(=O)(=O)Oc1ccc[nH]c1=O
inactive: [15] 110 % of control | dose: 12.5 mg/kg/injection, schedule: Q01DX009 (ip), vehicle: Klucel (hydroxypropylcellulose) (HPC) 93 % of control | [16] 121 % of control | [17] 103 % of control | [18] 115 % of control | [6] 104 % of control | [19] 118 % of control | [7] 97 % of control | [20] 109 % of control | [8] 98 % of control | dose: 400.0 mg/kg/injection, schedule: Q01DX009 (ip), vehicle: Klucel (hydroxypropylcellulose) (HPC) 97 % of control

N=C(N)SCc1ccc([N+](=O)[O-])cc1
inactive: [17] 102 % of control | [6] 107 % of control

C=CCSc1nc2ccc(NCN3C(=O)c4ccccc4C3=O)cc2s1
inactive: [6] 96 % of control | [7] 96 % of control | [8] 98 % of control

O=C(O)CC1C(=O)OC2C3COC(=O)c4cc(O)c(O)c(O)c4-c4c(cc(O)c(O)c4O)C(=O)OC2C(OC(=O)c2cc(O)c(O)c4c2C1C(O)C(=O)O4)C(OC(=O)c1cc(O)c(O)c(O)c1)O3 (stereo not given)
inactive: dose: 0.78 mg/kg/injection, schedule: Q01DX009 (ip), vehicle: saline 99 % of control | dose: 1.56 mg/kg/injection, schedule: Q01DX009 (ip), vehicle: saline 102 % of control | dose: 3.12 mg/kg/injection, schedule: Q01DX009 (ip), vehicle: saline 98 % of control | [15] 100 % of control and 121 % of control | [16] 111 % of control and 93 % of control | [18] 107 % of control and 97 % of control | [19] 116 % of control and 97 % of control

CC(=O)OCC1OC(n2nnc3c(=O)[nH]cnc32)C(OC(C)=O)C(OC(C)=O)C1OC(C)=O (stereo not given)
inactive: [21] 96 % of control | dose: 200.0 mg/kg/injection, schedule: Q01DX001 (ip), vehicle: saline with Tween-80 102 % of control | dose: 400.0 mg/kg/injection, schedule: Q01DX001 (ip), vehicle: saline with Tween-80 94 % of control

Clc1cc2[nH]ccc2c(Cl)n1
inactive: dose: 50.0 mg/kg/injection, schedule: Q01DX001 (ip), vehicle: saline with Tween-80 90 % of control | [21] 92 % of control

NNc1ccc2nccn2n1
inactive: [12] 95 % of control | [13] 101 % of control | [14] 94 % of control

COc1cc2c(cc1OC)[N+]([O-])=C(c1ccccc1)C2=O
inactive: [4] 94 % of control | [5] 93 % of control

C(=C\c1cccs1)/c1csnn1
inactive: dose: 60.0 mg/kg/injection, schedule: Q01DX005 (ip), vehicle: saline with Tween-80 101 % of control | dose: 120.0 mg/kg/injection, schedule: Q01DX005 (ip), vehicle: saline with Tween-80 102 % of control | dose: 240.0 mg/kg/injection, schedule: Q01DX005 (ip), vehicle: saline with Tween-80 101 % of control

Cc1nc2n[nH]c(N)c2nc1C
inactive: [1] 100 % of control | [2] 104 % of control | [3] 95 % of control

CC(=O)NC#N.CCN(CC)CC.[CH-]1CCCCC1.[CH-]1CCCCC1.[CH-]1CCCCC1.[Cl-].[Sn+4]
inactive: dose: 3.12 mg/kg/injection, schedule: Q01DX005 (ip), vehicle: saline with Tween-80 106 % of control | dose: 6.25 mg/kg/injection, schedule: Q01DX005 (ip), vehicle: saline with Tween-80 105 % of control

Nc1cccc(SC2CC(=O)N(c3ccc4c(c3)OCO4)C2=O)c1 (stereo not given)
inactive: dose: 100.0 mg/kg/injection, schedule: Q04DX003 (ip), vehicle: Klucel (hydroxypropylcellulose) (HPC) 92 % of control | dose: 200.0 mg/kg/injection, schedule: Q04DX003 (ip), vehicle: Klucel (hydroxypropylcellulose) (HPC) 101 % of control

COc1ccc(C2N=C(N)Nc3nc[nH]c32)c(OC)c1 (stereo not given)
inactive: dose: 50.0 mg/kg/injection, schedule: Q01DX009 (ip), vehicle: suspension in saline 102 % of control | dose: 100.0 mg/kg/injection, schedule: Q01DX009 (ip), vehicle: suspension in saline 115 % of control | dose: 200.0 mg/kg/injection, schedule: Q01DX009 (ip), vehicle: suspension in saline 109 % of control

C(=Nc1cccnc1)c1ccc(C=Nc2cccnc2)cc1
inactive: [19] 108 % of control | [20] 104 % of control

COc1ccc(CNCCNCc2ccc(OC)cc2)cc1
inactive: dose: 50.0 mg/kg/injection, schedule: Q01DX001 (ip), vehicle: Klucel (hydroxypropylcellulose) (HPC) 93 % of control | dose: 100.0 mg/kg/injection, schedule: Q01DX001 (ip), vehicle: Klucel (hydroxypropylcellulose) (HPC) 93 % of control | dose: 200.0 mg/kg/injection, schedule: Q01DX001 (ip), vehicle: Klucel (hydroxypropylcellulose) (HPC) 90 % of control

Source: PubChem BioAssay AID330 (DTP/NCI, 2004)
